In publication PMC5564600 (Oncotarget, 2017):

Legend:
Test in all cases: biochemical
Assay type in all cases: binding
[1] = target: T1, panel of 442 kinases (Homo sapiens, UniProt O60285); settings: ARK5; for remaining activity at 1 µM: read-out: % of control at 1 µM
T1 construct: purchased Ambit Biosciences (scanMAXX KINOMEscan)
T1 sequence (O60285 1-661): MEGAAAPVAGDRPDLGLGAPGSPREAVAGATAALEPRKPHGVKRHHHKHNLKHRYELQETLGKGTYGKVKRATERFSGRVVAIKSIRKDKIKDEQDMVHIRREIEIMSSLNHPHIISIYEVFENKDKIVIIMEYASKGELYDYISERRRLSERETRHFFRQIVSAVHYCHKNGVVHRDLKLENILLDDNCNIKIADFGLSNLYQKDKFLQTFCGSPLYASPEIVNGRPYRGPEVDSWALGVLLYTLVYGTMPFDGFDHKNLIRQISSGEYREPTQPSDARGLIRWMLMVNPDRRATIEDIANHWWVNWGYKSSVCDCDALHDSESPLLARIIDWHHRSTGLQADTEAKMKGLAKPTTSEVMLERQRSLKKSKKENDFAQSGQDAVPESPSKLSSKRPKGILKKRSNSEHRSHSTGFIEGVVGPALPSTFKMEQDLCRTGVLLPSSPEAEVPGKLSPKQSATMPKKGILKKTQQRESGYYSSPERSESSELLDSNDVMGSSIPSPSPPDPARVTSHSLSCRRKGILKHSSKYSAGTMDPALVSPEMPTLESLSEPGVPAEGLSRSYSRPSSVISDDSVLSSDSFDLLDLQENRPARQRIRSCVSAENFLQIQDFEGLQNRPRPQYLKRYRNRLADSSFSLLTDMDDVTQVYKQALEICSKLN

[2] = target: T2, panel of 442 kinases (Homo sapiens, UniProt Q9BRS2); settings: kinase RIOK1; for remaining activity at 1 µM: read-out: RIOK1 (% of control at 1 µM)
T2 construct: purchased Ambit Biosciences (scanMAXX KINOMEscan)
T2 sequence (Q9BRS2 1-568): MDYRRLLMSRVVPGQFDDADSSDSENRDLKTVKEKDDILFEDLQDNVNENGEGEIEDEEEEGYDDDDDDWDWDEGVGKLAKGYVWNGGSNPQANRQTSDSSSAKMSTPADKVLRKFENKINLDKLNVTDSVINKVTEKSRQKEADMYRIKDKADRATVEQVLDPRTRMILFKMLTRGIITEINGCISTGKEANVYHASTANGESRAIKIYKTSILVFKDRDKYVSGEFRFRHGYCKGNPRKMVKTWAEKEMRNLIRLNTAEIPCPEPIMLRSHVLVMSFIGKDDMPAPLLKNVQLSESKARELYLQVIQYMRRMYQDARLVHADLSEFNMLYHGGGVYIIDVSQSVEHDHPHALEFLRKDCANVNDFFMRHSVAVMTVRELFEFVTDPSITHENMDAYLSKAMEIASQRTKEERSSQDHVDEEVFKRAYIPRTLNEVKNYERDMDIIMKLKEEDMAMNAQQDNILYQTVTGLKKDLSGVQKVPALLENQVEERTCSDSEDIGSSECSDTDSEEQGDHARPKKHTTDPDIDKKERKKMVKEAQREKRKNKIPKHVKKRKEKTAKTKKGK

[3] = target: T3, panel of 442 kinases (Homo sapiens, UniProt P52333); settings: kinase JAK3(JH1domain-catalytic); for remaining activity at 1 µM: read-out: % of control at 1 µM
T3 construct: purchased Ambit Biosciences (scanMAXX KINOMEscan)
T3 sequence (P52333 1-1124): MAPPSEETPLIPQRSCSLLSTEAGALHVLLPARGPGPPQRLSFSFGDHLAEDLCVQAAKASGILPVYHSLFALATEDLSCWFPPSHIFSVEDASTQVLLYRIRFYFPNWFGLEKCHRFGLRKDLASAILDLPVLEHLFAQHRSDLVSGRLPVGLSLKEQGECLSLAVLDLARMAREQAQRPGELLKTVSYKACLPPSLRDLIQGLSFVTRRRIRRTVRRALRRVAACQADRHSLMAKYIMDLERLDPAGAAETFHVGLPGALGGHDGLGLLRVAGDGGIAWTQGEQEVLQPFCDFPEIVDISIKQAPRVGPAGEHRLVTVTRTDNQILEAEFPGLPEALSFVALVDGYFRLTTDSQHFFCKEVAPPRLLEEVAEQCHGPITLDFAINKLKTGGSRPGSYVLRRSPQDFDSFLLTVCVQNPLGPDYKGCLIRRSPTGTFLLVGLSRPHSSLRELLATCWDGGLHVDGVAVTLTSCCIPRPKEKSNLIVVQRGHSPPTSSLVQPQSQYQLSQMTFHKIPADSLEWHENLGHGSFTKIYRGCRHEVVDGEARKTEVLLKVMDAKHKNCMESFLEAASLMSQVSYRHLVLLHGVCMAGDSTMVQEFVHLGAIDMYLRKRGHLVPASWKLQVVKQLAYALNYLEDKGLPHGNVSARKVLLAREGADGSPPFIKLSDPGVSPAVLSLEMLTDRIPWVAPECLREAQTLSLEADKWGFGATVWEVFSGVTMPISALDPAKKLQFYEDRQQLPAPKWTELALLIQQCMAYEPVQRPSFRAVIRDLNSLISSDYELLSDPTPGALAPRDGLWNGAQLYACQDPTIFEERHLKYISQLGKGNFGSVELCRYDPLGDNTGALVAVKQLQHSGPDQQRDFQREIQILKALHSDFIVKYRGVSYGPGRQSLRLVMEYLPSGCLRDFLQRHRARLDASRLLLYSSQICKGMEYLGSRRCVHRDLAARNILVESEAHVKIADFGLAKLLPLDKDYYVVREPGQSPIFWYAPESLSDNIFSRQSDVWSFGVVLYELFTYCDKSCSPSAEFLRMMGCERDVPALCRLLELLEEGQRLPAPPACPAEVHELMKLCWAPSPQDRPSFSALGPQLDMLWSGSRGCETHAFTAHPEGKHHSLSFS

[4] = 10 µM, read-out: % of control at 10 µM

`Nc1cc(C(F)(F)F)c(-c2cc(N3CCOCC3)nc(N3CCOCC3)n2)cn1` [Buparlisib] gave a remaining activity at 1 µM [1] of 100%, a remaining activity at 10 µM [1, 4] of 100% and a remaining activity at 1 µM [2] of 89%. For the same compound, the remaining activity at 10 µM ([2]; 10 µM, read-out: RIOK1 (% of control at 10 µM)) was 81%, the remaining activity at 1 µM [3] was 90% and the remaining activity at 10 µM [3, 4] was 89%.

`Cn1c(=O)n(-c2ccc(C(C)(C)C#N)cc2)c2c3cc(-c4cnc5ccccc5c4)ccc3ncc21` [Dactolisib, 2-methyl-2-[4-(3-methyl-2-oxo-8-quinolin-3-yl-2,3-dihydroimidazo[4,5-c]quinolin-1-yl)-phenyl] propionitrile] was tested, and the remaining activity at 1 µM [1] was 32%, the remaining activity at 1 µM [2] was 66% and the remaining activity at 1 µM [3] was 37%.

Compound `COc1ncc(-c2ccc3nccc(-c4ccnnc4)c3c2)cc1NS(=O)(=O)c1ccc(F)cc1F` [Omipalisib] has a remaining activity at 1 µM [1] of 100%, a remaining activity at 1 µM [2] of 100% and a remaining activity at 1 µM [3] of 82%.

`FC(F)c1nc2ccccc2n1-c1nc(N2CCOCC2)nc(N2CCOCC2)n1` [ZSTK474, 2-(difluoromethyl)-1-[4,6-di(4-morpholinyl)-1,3,5-triazin-2-yl]-1H-benzimidazole] showed a remaining activity at 1 µM [1] of 100%, a remaining activity at 1 µM [2] of 84% and a remaining activity at 1 µM [3] of 100%.
